Experiments:
Experiment in all cases: relative viability (nuclei count vs DMSO), 5 days (fraction); higher = more cells survive
RU-SKI 43 + Luminespib = compound: CC[C@@H](C)CNCC(=O)N1CCC2=C([C@@H]1COC3=CC=CC(=C3)C)C=CS2 [RU-SKI 43] + CCNC(=O)c1noc(-c2cc(C(C)C)c(O)cc2O)c1-c1ccc(CN2CCOCC2)cc1 [Luminespib] (partner 0.01 µM)
Outline: (§1)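 One day after seeding in 1536-well plates, lung cancer cell lines were dosed by pin tool. Dosing was either single-drug or a fixed anchor-drug dose plus five library-drug doses (not always all listed) in √10 steps. After 5 days, nuclei were stained in one fix-and-stain step and counted on 4× images, and relative viability is the nuclei count of treated wells over that of vehicle wells, given as the median of duplicate plates.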

RU-SKI 43 + Lapatinib = compound: CC[C@@H](C)CNCC(=O)N1CCC2=C([C@@H]1COC3=CC=CC(=C3)C)C=CS2 [RU-SKI 43] + CS(=O)(=O)CCNCc1ccc(-c2ccc3ncnc(Nc4ccc(OCc5cccc(F)c5)c(Cl)c4)c3c2)o1 [Lapatinib] (partner 2 µM)
Outline: as §1

Irinotecan + Navitoclax = compound: CCc1c2c(nc3ccc(OC(=O)N4CCC(N5CCCCC5)CC4)cc13)-c1cc3c(c(=O)n1C2)COC(=O)[C@]3(O)CC [Irinotecan] + CC1(C)CCC(c2ccc(Cl)cc2)=C(CN2CCN(c3ccc(C(=O)NS(=O)(=O)c4ccc(N[C@H](CCN5CCOCC5)CSc5ccccc5)c(S(=O)(=O)C(F)(F)F)c4)cc3)CC2)C1 [Navitoclax] (partner 0.5 µM)
Outline: as §1

MK-8033 + OSI-027 = compound: Cn1cc(-c2cnc3ccc4ccc(CS(=O)(=O)NCc5ccccn5)cc4c(=O)c3c2)cn1 [MK-8033] + COc1cccc2cc(-c3nc([C@H]4CC[C@H](C(=O)O)CC4)n4ncnc(N)c34)[nH]c12 [OSI-027] (partner 0.5 µM)
Outline: as §1

Cell Line | relative viability (RU-SKI 43 + Luminespib; first compound 0.1 µM) | relative viability (RU-SKI 43 + Luminespib; first compound 0.3162 µM) | relative viability (RU-SKI 43 + Luminespib; first compound 1 µM) | relative viability (RU-SKI 43 + Luminespib; first compound 10 µM) | relative viability (RU-SKI 43 + Lapatinib; first compound 0.1 µM) | relative viability (RU-SKI 43 + Lapatinib; first compound 0.3162 µM) | relative viability (RU-SKI 43 + Lapatinib; first compound 1 µM) | relative viability (RU-SKI 43 + Lapatinib; first compound 3.162 µM) | relative viability (RU-SKI 43 + Lapatinib; first compound 10 µM) | relative viability (Irinotecan + Navitoclax; first compound 0.6325 µM) | relative viability (Irinotecan + Navitoclax; first compound 2 µM) | relative viability (Irinotecan + Navitoclax; first compound 6.325 µM) | relative viability (Irinotecan + Navitoclax; first compound 20 µM) | relative viability (MK-8033 + OSI-027; first compound 0.02 µM) | relative viability (MK-8033 + OSI-027; first compound 0.06325 µM) | relative viability (MK-8033 + OSI-027; first compound 0.2 µM) | relative viability (MK-8033 + OSI-027; first compound 0.6325 µM) | relative viability (MK-8033 + OSI-027; first compound 2 µM) | relative viability (RU-SKI 43 + Luminespib; first compound 3.162 µM)
NCI-H23 | 0.209 | 0.181 | 0.209 | 0.224 | 0.834 | 1.22 | 1.37 | 1.12 | 0.916 | 0.782 | 0.505 | 0.26 | 0.22 | 0.496 | 0.525 | 0.553 | 0.605 | 0.538 | 
EMC-BAC-2 | 1.18 | 1.26 | 1.32 | 1.19 | 0.924 | 0.961 | 0.933 | 0.983 | 0.916 | 0.705 | 0.36 | 0.202 | 0.226 | 0.384 | 0.408 | 0.395 | 0.375 | 0.386 | 1.16
EPLC-272H | 0.467 | 0.182 | 0.73 | 0.278 | 0.913 | 0.831 | 1.25 |  | 0.833 | 0.658 | 0.17 | 0.144 | 0.209 | 0.271 | 0.291 | 0.299 | 0.306 | 0.276 | 0.423
EKVX | 0.939 | 0.809 | 0.758 | 0.833 | 0.185 | 0.175 | 0.202 | 0.208 | 0.187 | 0.924 | 0.74 | 0.344 | 0.157 | 0.731 | 0.665 | 0.637 | 0.642 | 0.723 | 0.932
HCC-15 | 0.427 | 0.249 | 0.478 | 0.419 | 0.906 | 1.16 | 1.04 | 0.787 | 0.717 | 0.5 | 0.209 | 0.147 | 0.167 | 0.692 | 0.588 | 0.64 | 0.648 | 0.656 | 0.285
LXF-289 | 0.729 | 0.853 | 0.852 | 0.568 | 0.906 | 0.88 | 0.979 | 0.989 | 0.878 | 0.891 | 0.439 | 0.153 | 0.175 | 0.809 | 0.668 | 0.667 | 0.83 | 0.806 | 0.751
LK-2 | 0.182 | 0.168 | 0.171 | 0.177 | 1.38 | 1.09 | 1.19 | 1.03 | 1.03 | 0.858 | 0.754 | 0.406 | 0.255 | 0.202 | 0.227 | 0.22 | 0.189 | 0.276 | 0.189
NCI-H2126 | 0.837 | 1.09 | 1.11 | 0.891 | 0.797 | 0.63 | 0.823 | 0.779 | 0.766 |  | 0.421 | 0.319 | 0.308 | 0.752 | 0.666 | 0.764 | 0.595 | 0.808 | 0.959
NCI-H596 | 0.89 | 1.05 | 1.06 | 0.744 | 1.09 | 1.06 | 0.997 | 1.19 | 1.14 | 0.932 | 0.752 | 0.412 | 0.443 | 0.798 | 0.612 | 0.607 | 0.706 | 0.599 | 1.12
NCI-H3122 | 0.0907 | 0.0845 | 0.103 | 0.0897 | 1.06 | 1.03 | 1.03 | 1.09 | 0.979 | 0.723 | 0.235 | 0.226 | 0.209 | 1.05 | 0.957 | 0.926 | 0.991 | 0.916 | 0.0966
NCI-H727 | 0.365 | 0.393 | 0.26 | 0.664 | 0.797 | 0.905 | 0.84 | 0.839 | 0.927 | 0.225 | 0.358 | 0.319 | 0.308 | 0.667 |  | 0.652 | 0.583 | 0.551 | 0.362
NCI-H1355 | 0.577 | 0.822 | 0.869 | 0.741 | 0.961 | 1.13 | 0.897 | 0.995 | 0.984 | 0.812 | 0.28 | 0.195 | 0.237 | 0.366 | 0.296 | 0.404 | 0.423 | 0.411 | 0.76
NCI-H1792 | 0.462 | 0.568 | 0.447 | 0.456 | 0.937 | 1.14 | 1.42 | 0.88 | 0.973 | 0.598 | 0.72 | 0.162 | 0.095 | 0.655 | 0.611 | 0.683 | 0.628 | 0.512 | 0.492

From the supplement of paper PMC10307832
